{"source": "paper PMC8986778", "about": "“Citrullination of glucokinase is linked to autoimmune diabetes” (Nature Communications, 2022)", "key": {"glucokinase": {"tested_on": "glucokinase", "conditions": "randomized, double-blind and placebo-controlled study; cited from earlier work", "description": "As mentioned above, ATP-dependent GK converts glucose to glucose-6-phosphate, the critical step in glucose metabolism. Alternative splicing of the GK gene results in three tissue-specific isoforms, isoform 1 (pancreas) and isoforms 2 and 3 (liver). The only difference among three GK isoforms is in the amino acid sequence of exon 1 in the first fifteen amino acids of human pancreatic glucokinase. Unlike other hexokinases, GK is not regulated by feedback inhibition by glucose-6-phosphate. Therefore, GK can constitutively trigger insulin secretion in pancreatic β-cells under high glucose cond ..."}, "[1]": {"tested_on": "recombinant human pancreatic glucokinase", "experiment": "Catalytic activity of recombinant human pancreatic glucokinase (G6PDH coupled assay)", "type": "biochemical", "parameters": "catalytic activity: unit not given beside the values", "conditions": "for catalytic activity: source data sheet Fig 5c; for Vmax / Km: steady-state kinetics at 37 °C, Michaelis-Menten fit; for Vmax: glucose 0–50 mM; for Km: substrate glucose 0–50 mM", "description": "For in vitro citrullination, 0.1U of rabbit peptidylarginine deiminase (PADI2; Sigma–Aldrich) were added to 50 µg of recombinant human pancreatic glucokinase (rhGK; LS-G3456, LSBio) in reaction buffer (0.1 M Tris-HCl, 10 mM CaCl2 and 5 mM DTT) at 37 °C for 2.5 hrs and kept at -80 °C in multiple aliquots to avoid freeze and thaw until used. Minimum 6 µg of rhGK and PAD-treated-rhGK were reduced, alkylated and tryptic digested for LS-MS/MS analysis. Data were collected on a QE-Plus mass spectrometer coupled to a NanoACQUITY UPLC (Waters Inc.). A Waters Symmetry® C18 180 μm × 20 mm trap column and a 1.7-μm, 75 μm × 250 mm nanoACQUITY UPLC column (35 °C) was utilized for the separation. Collected LC–MS/MS data were processed using Proteome Discoverer Software (v. 2.2, Thermo Fisher Scientific) and searched were carried out in MASCOT Search Engine (Matrix Science) using the below parameters; oxidation (M), deamidated (N/Q) and citrullination (R) as the variable modifications and carbamidomethylation (C) as a fixed modification. Mascot results were loaded into Scaffold Q + S 4.11.0 and then Scaffold PTM 3.3.0 was used to re-analyze MS/MS spectra identified as citrulline modified peptides. Calculated Ascore values for citrullinated peptides containing the neutral loss of isocyanic acid (−43 Da)[54] indicate the level of site localization probabilities to assess the level of confidence in each citrullination PTM localization. Scaffold PTM then combines localization probabilities for all peptides containing each identified PTM site to obtain the best estimated probability that a PTM is present at that particular site. Manual MS/MS inspection of the modified peptides were also carried out to ensure correct assignments/localizations of the citrullination sites (detailed MS/MS spectra are presented in Source Data-File 2 spreadsheet).\nAfter in vitro citrullination by PAD as described above, recombinant human pancreatic glucokinase (rhGK; LS-G5486, LSBio) was put on the ice to stop the reaction for 5 min. Then glucokinase activity was measured spectrophotometrically (A340nm) at 37 °C by a glucose 6-phosphate dehydrogenase (G6PDH) coupled assay as described previously. In brief, 1 µg rhGK or PAD-treated rhGK was assayed in a reaction buffer containing 25 mM Hepes (pH7.3), 2 mM MgCl2, 1 mM DTT, 0.5 mM NADP, 2 mM ATP, 0.01%BSA, 20U/ml G6PDH and 25 mM D-( + )-glucose. Relative specific activity of glucokinase was calculated from linear regression of the change in A340nm. To determine the steady-state kinetic properties of both rhGK and PAD-treated rhGK, varying concentrations of D-( + )-glucose (0–50 mM) were used. Vmax and Km were calculated by Michaelis-Menten equation using GraphPad Prism Software."}, "INS-1E cells [2]": {"tested_on": "INS-1E cells", "experiment": "Insulin secretion assay", "type": "cell-based, rat", "description": "(§1) For insulin secretion assay, the INS-1E cells, a gift from Prof. Wollheim (CMU, Geneva, Switzerland)[53], were seeded on 6 well plate and cultured with recombinant mouse IFNγ (100 units/mL; R&D Systems) and recombinant human IL-1β (5 units/mL; R&D Systems) in the presence or absence of PAD2/PAD4 inhibitor (5 µM YW3-56; Cayman) for 48 hrs. Cells were washed and starved for 1 hr in low-glucose KREBS buffer (138 mM NaCl, 4.7 mM KCl, 1 mM CaCl2, 1.18 mM KH2PO4, 1.18 mM MgSO4, 5 mM NaHCO3, 25 mM Hepes (pH7.4), 0.1% BSA and 2.5 mM glucose). Assay buffer was then replaced with KREBS buffer containing either varying glucose concentration (2.5, 5, 9 and 16.7 mM), 10 mM sodium pyruvate or 30 mM KCl. After another 1 hr incubation, supernatants were collected and assayed for insulin by using Rat High Range Insulin ELISA kit (ALPCP) according to manufacturer’s protocol and analyzed using Microsoft excel Software. All experiments were performed using INS-1E cells between the 61st and 65th passage."}, "INS-1E cells [3]": {"tested_on": "INS-1E cells", "experiment": "Protein citrullination immunoblot (anti-modified citrulline)", "type": "cell-based, rat", "conditions": "IFNγ 100U/ml plus IL-1β 5U/ml, 5 µM YW3-56, 48 hrs", "description": "Presence of citrullinated protein was detected by using anti-citrulline (Abcam, ab6464) for immunohistochemistry as described elsewhere, by using anti-peptidyl-citrulline, clone F95 (Millipore, MABN328) for flow cytometry and confocal microscopy and by using anti-modified citrulline detection kit, clone C4 (Millipore, 17-347B) for immunoblot according to manufacturer’s protocol. The specificity and sensitivity of the above commercial antibodies for the detection of protein citrullination were described previously[47],[48] and in our recent reports[9],[51],[52].\nas §1, with “Assay buffer was then replaced with KREBS buffer containing either varying glucose concentration (2.5, 5, 9 and 16.7 mM), 10 mM sodium pyruvate or 30 mM KCl.” left out, “All experiments were performed using INS-1E cells between the 61st and 65th passage.” left out"}, "PAD4": {"tested_on": "PAD4", "conditions": "pan-PAD inhibitor; no reference printed (compound from Cayman); cited from earlier work", "description": "Proinflammatory cytokines are known to attenuate glucose stimulated insulin secretion (GSIS), mediated by glucokinase, as studied elsewhere[29]–[31]. We utilized a subclonal cell line from the parenteral INS-1 cells, INS-1E, to examine GSIS and how citrullination may alter the glucose sensing/insulin secreting metabolic pathway. We also utilized YW3-56, a pan-PAD inhibitor (IC50: […] and 1–5 µM for PAD2 and PAD4, respectively), in studies of GSIS in INS-1E cells as a means of blocking protein citrullination. First, we confirmed by immunoblot detection of citrulline that IFNγ+ IL-1β cytoki ..."}, "[4]": {"conditions": "25 mM glucose, 1 µg protein, replicate 1"}, "[5]": {"conditions": "25 mM glucose, 1 µg protein, replicate 2"}}, "data": [{"compound": "CCCO[C@H]1CC[C@H](N(C(=O)Nc2ncc(SCC(=O)O)s2)C2CCCCC2)CC1", "note": "[TTP399]", "values": [{"measurement": "clinical effect in patients with T1D", "setting": "glucokinase", "result": "lower HbA1C and reduce hypoglycemia without increasing the risk of ketosis"}]}, {"compound": "PAD-treated rhGK: rhGK citrullinated in vitro by rabbit peptidylarginine deiminase (PADI2)", "values": [{"measurement": "reduction of catalytic activity by citrullination", "setting": "[1]; 25 mM glucose, 1 µg protein, versus native rhGK", "result": 20, "unit": "%"}, {"measurement": "catalytic activity", "setting": "[1]; [4]", "result": 56.53}, {"measurement": "catalytic activity", "setting": "[1]; [5]", "result": 60.82}, {"measurement": "Vmax", "setting": "[1]", "result": "119.9 ± 7.7", "unit": "µmol/mg/min"}, {"measurement": "Km", "setting": "[1]", "result": "16.2 ± 2.3", "unit": "mM"}]}, {"compound": "YW3-56", "values": [{"measurement": "citrullination levels or GSIS, inhibitor alone", "setting": "INS-1E cells [2]; 5 µM YW3-56 without cytokines, 48 hrs", "result": "did not affect"}, {"measurement": "cytokine-mediated suppression of insulin secretion upon pyruvate stimulation", "setting": "INS-1E cells [2]; 10 mM sodium pyruvate, 5 µM YW3-56 with cytokines 48 h", "result": "able to correct"}, {"measurement": "IFNγ + IL-1β suppressed GSIS", "setting": "INS-1E cells [2]; 16.7 mM glucose, YW3-56 cocultured with cytokines for 48 h", "result": "partially correct"}, {"measurement": "insulin secretion to depolarization with KCL", "setting": "INS-1E cells [2]; 30 mM KCl, cytokines in the presence or absence of YW3-56", "result": "not affected"}, {"measurement": "insulin secretion", "setting": "INS-1E cells [2]; YW3-56 alone (no cytokine), glucose 2.5 (head prints nM), replicate 1", "result": 20.6698}, {"measurement": "insulin secretion", "setting": "INS-1E cells [2]; YW3-56 alone, KCl, replicate 1", "result": 216.859}, {"measurement": "insulin secretion", "setting": "INS-1E cells [2]; YW3-56 alone, KCl, replicate 2", "result": 173.302}, {"measurement": "insulin secretion", "setting": "INS-1E cells [2]; YW3-56 alone, KCl, replicate 3", "result": 216.475}, {"measurement": "insulin secretion", "setting": "INS-1E cells [2]; YW3-56 alone, glucose 2.5 (head prints nM), replicate 2", "result": 24.1975}, {"measurement": "insulin secretion", "setting": "INS-1E cells [2]; YW3-56 alone, glucose 2.5 (head prints nM), replicate 3", "result": 21.4049}, {"measurement": "insulin secretion", "setting": "INS-1E cells [2]; YW3-56 alone, glucose 5 (head prints nM), replicate 1", "result": 75.1459}, {"measurement": "insulin secretion", "setting": "INS-1E cells [2]; YW3-56 alone, glucose 5 (head prints nM), replicate 2", "result": 84.4819}, {"measurement": "insulin secretion", "setting": "INS-1E cells [2]; YW3-56 alone, glucose 5 (head prints nM), replicate 3", "result": 61.4806}, {"measurement": "insulin secretion", "setting": "INS-1E cells [2]; YW3-56 alone, glucose 16.7 (head prints nM), replicate 1", "result": 227.056}, {"measurement": "insulin secretion", "setting": "INS-1E cells [2]; YW3-56 alone, glucose 16.7 (head prints nM), replicate 2", "result": 273.99}, {"measurement": "insulin secretion", "setting": "INS-1E cells [2]; YW3-56 alone, glucose 16.7 (head prints nM), replicate 3", "result": 236.558}, {"measurement": "insulin secretion", "setting": "INS-1E cells [2]; YW3-56 alone, pyruvate, replicate 1", "result": 292.452}, {"measurement": "insulin secretion", "setting": "INS-1E cells [2]; YW3-56 alone, pyruvate, replicate 2", "result": 273.99}, {"measurement": "insulin secretion", "setting": "INS-1E cells [2]; YW3-56 alone, pyruvate, replicate 3", "result": 273.99}, {"measurement": "insulin secretion", "setting": "INS-1E cells [2]; cytokine (IFNγ + IL-1β) + YW3-56 5 µM 48 hrs, 1 hr glucose 2.5 (head prints nM), replicate 1", "result": 42.5356}, {"measurement": "insulin secretion", "setting": "INS-1E cells [2]; cytokine + YW3-56 48 hrs, KCl, replicate 1", "result": 91.8746}, {"measurement": "insulin secretion", "setting": "INS-1E cells [2]; cytokine + YW3-56 48 hrs, KCl, replicate 2", "result": 82.0356}, {"measurement": "insulin secretion", "setting": "INS-1E cells [2]; cytokine + YW3-56 48 hrs, KCl, replicate 3", "result": 59.5376}, {"measurement": "insulin secretion", "setting": "INS-1E cells [2]; cytokine + YW3-56 48 hrs, glucose 2.5 (head prints nM), replicate 2", "result": 26.9388}, {"measurement": "insulin secretion", "setting": "INS-1E cells [2]; cytokine + YW3-56 48 hrs, glucose 2.5 (head prints nM), replicate 3", "result": 26.5034}, {"measurement": "insulin secretion", "setting": "INS-1E cells [2]; cytokine + YW3-56 48 hrs, glucose 5 (head prints nM), replicate 1", "result": 38.7513}, {"measurement": "insulin secretion", "setting": "INS-1E cells [2]; cytokine + YW3-56 48 hrs, glucose 5 (head prints nM), replicate 2", "result": 47.2935}, {"measurement": "insulin secretion", "setting": "INS-1E cells [2]; cytokine + YW3-56 48 hrs, glucose 5 (head prints nM), replicate 3", "result": 37.2188}, {"measurement": "insulin secretion", "setting": "INS-1E cells [2]; cytokine + YW3-56 48 hrs, glucose 16.7 (head prints nM), replicate 1", "result": 95.9987}, {"measurement": "insulin secretion", "setting": "INS-1E cells [2]; cytokine + YW3-56 48 hrs, glucose 16.7 (head prints nM), replicate 2", "result": 101.342}, {"measurement": "insulin secretion", "setting": "INS-1E cells [2]; cytokine + YW3-56 48 hrs, glucose 16.7 (head prints nM), replicate 3", "result": 93.7876}, {"measurement": "insulin secretion", "setting": "INS-1E cells [2]; cytokine + YW3-56 48 hrs, pyruvate, replicate 1", "result": 78.6578}, {"measurement": "insulin secretion", "setting": "INS-1E cells [2]; cytokine + YW3-56 48 hrs, pyruvate, replicate 2", "result": 90.7306}, {"measurement": "insulin secretion", "setting": "INS-1E cells [2]; cytokine + YW3-56 48 hrs, pyruvate, replicate 3", "result": 140.964}, {"measurement": "IFNγ+ IL-1β cytokine-induced citrullination levels", "setting": "INS-1E cells [3]", "result": "reduced"}, {"measurement": "IC50", "setting": "PAD4", "result": "1000 to 5000", "unit": "nM"}]}, {"compound": "rhGK: Recombinant human pancreatic glucokinase", "values": [{"measurement": "catalytic activity", "setting": "[1]; [4]", "result": 72.34}, {"measurement": "catalytic activity", "setting": "[1]; [5]", "result": 76.63}, {"measurement": "Vmax", "setting": "[1]", "result": "115.1 ± 10.5", "unit": "µmol/mg/min"}, {"measurement": "Km", "setting": "[1]", "result": "8.48 ± 2.1", "unit": "mM"}]}]}
